Source: patent US9708314B2, “Heterocyclic amide compound” (NISSAN CHEMICAL INDUSTRIES, LTD., priority 2013, dated 2017)

Key:
Format in all cases: in vivo
Cyperus difformis = assay: Test Example 3: herbicidal effect by application to foliage (Wagner pot, water depth 0.1-0.5 cm); conditions: Nineteenth Table; application to foliage; application herbicide amount 320 g/ha
In short: (§1)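 Greenhouse pot test, 25–30 °C, alluvial soil. Sown seedlings grown 14 days then sprayed on leaves and stems with emulsion diluted to target g/ha. Rating at 3 weeks, 0–5 scale (0 ≤5%, 5 ≥90%).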

[1] = test system: Echinochloa crus-galli var. crus-galli; assay: as above; conditions: Nineteenth Table; application to foliage; application herbicide amount 320 g/ha
In short: as §1

Leptochloa chinensis = assay: as above; conditions: Nineteenth Table; application to foliage; application herbicide amount 320 g/ha
In short: as §1

Abutilon theophrasti = assay: Test Example 4: herbicidal effect by application to foliage (diluvial soil, plastic box); conditions: for M: herbicidal effect on Abutilon theophrasti / herbicidal effect, M (Abutilon theophrasti): application to foliage; for M: herbicidal effect on Abutilon theophrasti: application herbicide amount 320 g/ha
In short: (§2)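 Read-out is a 0–5 visual grade of herbicidal ratio (5: ≥90%, almost withered; 0: ≤5%) taken three weeks after treatment. Compound was applied as a diluted emulsion to stem and leaf parts of 14-day greenhouse-grown plants (25° C. to 30° C.) at rates expressed as g/ha.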

Alopecurus myosuroides = assay: as above; conditions: for J: herbicidal effect on Alopecurus myosuroides / herbicidal effect, J (Alopecurus myosuroides): application to foliage; for J: herbicidal effect on Alopecurus myosuroides: application herbicide amount 320 g/ha
In short: as §2

Amaranthus retroflexus = assay: as above; conditions: for N: herbicidal effect on Amaranthus retroflexus / herbicidal effect, N (Amaranthus retroflexus): application to foliage; for N: herbicidal effect on Amaranthus retroflexus: application herbicide amount 320 g/ha
In short: as §2

Apera spica-venti. = assay: as above; conditions: for L: herbicidal effect on Apera spica-venti. / herbicidal effect, L (Apera spica-venti.): application to foliage; for L: herbicidal effect on Apera spica-venti.: application herbicide amount 320 g/ha
In short: as §2

Avena fatua = assay: as above; conditions: for I: herbicidal effect on Avena fatua / herbicidal effect, I (Avena fatua): application to foliage; for I: herbicidal effect on Avena fatua: application herbicide amount 320 g/ha
In short: as §2

Chenopodium album = assay: as above; conditions: for O: herbicidal effect on Chenopodium album: application herbicide amount 320 g/ha
In short: as §2

Digitaria ciliaris = assay: as above; conditions: for F: herbicidal effect on Digitaria ciliaris / herbicidal effect, F (Digitaria ciliaris): application to foliage; for F: herbicidal effect on Digitaria ciliaris: application herbicide amount 320 g/ha
In short: as §2

[2] = test system: Echinochloa crus-galli var. crus-galli; assay: as above; conditions: for H: herbicidal effect on Echinochloa crus-galli var. crus-galli / herbicidal effect, H (Echinochloa crus-galli var. crus-galli): application to foliage; for H: herbicidal effect on Echinochloa crus-galli var. crus-galli: application herbicide amount 320 g/ha
In short: as §2

Galium spurium = assay: as above; conditions: for Q: herbicidal effect on Galium spurium / herbicidal effect, Q (Galium spurium): application to foliage; for Q: herbicidal effect on Galium spurium: application herbicide amount 320 g/ha
In short: as §2

Lolium multiflorum Lam. = assay: as above; conditions: for K: herbicidal effect on Lolium multiflorum Lam. / herbicidal effect, K (Lolium multiflorum Lam.): application to foliage; for K: herbicidal effect on Lolium multiflorum Lam.: application herbicide amount 320 g/ha
In short: as §2

Setaria viridis = assay: as above; conditions: for G: herbicidal effect on Setaria viridis / herbicidal effect, G (Setaria viridis): application to foliage; for G: herbicidal effect on Setaria viridis: application herbicide amount 320 g/ha
In short: as §2

Stellaria media = assay: as above; conditions: application to foliage; for herbicidal effect, P (Stellaria media): 320 g/ha
In short: as §2

Veronica persica = assay: as above; conditions: for R: herbicidal effect on Veronica persica / herbicidal effect, R (Veronica persica): application to foliage; for R: herbicidal effect on Veronica persica: application herbicide amount 320 g/ha
In short: as §2

[3] = test system: directly sowed Oryza sativa; assay: Test Example 3: effect on crop by application to foliage (Wagner pot, water depth 0.1-0.5 cm); conditions: Nineteenth Table; application to foliage; application herbicide amount 320 g/ha
In short: as §1

Row | Structure (SMILES) | E (herbicidal effect grade) (Cyperus difformis) | H (herbicidal effect grade) [1] | D (herbicidal effect grade) (Leptochloa chinensis) | M: herbicidal effect on Abutilon theophrasti (Abutilon theophrasti) | J: herbicidal effect on Alopecurus myosuroides (Alopecurus myosuroides) | N: herbicidal effect on Amaranthus retroflexus (Amaranthus retroflexus) | L: herbicidal effect on Apera spica-venti. (Apera spica-venti.) | I: herbicidal effect on Avena fatua (Avena fatua) | O: herbicidal effect on Chenopodium album (Chenopodium album; application to foliage) | F: herbicidal effect on Digitaria ciliaris (Digitaria ciliaris) | H: herbicidal effect on Echinochloa crus-galli var. crus-galli [2] | Q: herbicidal effect on Galium spurium (Galium spurium) | K: herbicidal effect on Lolium multiflorum Lam. (Lolium multiflorum Lam.) | G: herbicidal effect on Setaria viridis (Setaria viridis) | R: herbicidal effect on Veronica persica (Veronica persica) | herbicidal effect, M (Abutilon theophrasti) (Abutilon theophrasti; 320 g/ha) | herbicidal effect, J (Alopecurus myosuroides) (Alopecurus myosuroides; 320 g/ha) | herbicidal effect, N (Amaranthus retroflexus) (Amaranthus retroflexus; 320 g/ha) | herbicidal effect, L (Apera spica-venti.) (Apera spica-venti.; 320 g/ha) | herbicidal effect, I (Avena fatua) (Avena fatua; 320 g/ha) | also measured
1 | Cc1nnc(NC(=O)c2ccc(C(F)(F)F)n3c(SC4CCCC4)nnc23)o1 [1-154] | 4 (Herbicidal ratio of 70% or more and less than 90%) | 3 (Herbicidal ratio of 40% or more and less than 70%) | 2 (Herbicidal ratio of 20% or more and less than 40%) | 2 (Herbicidal ratio of 20% or more and less than 40%) | 0 (Herbicidal ratio of 5% or less (almost no effect)) | 2 (Herbicidal ratio of 20% or more and less than 40%) | 0 (Herbicidal ratio of 5% or less (almost no effect)) | 0 (Herbicidal ratio of 5% or less (almost no effect)) | 5 (Herbicidal ratio of 90% or more (almost completely withered)) | 3 (Herbicidal ratio of 40% or more and less than 70%) | 3 (Herbicidal ratio of 40% or more and less than 70%) | 0 (Herbicidal ratio of 5% or less (almost no effect)) | 0 (Herbicidal ratio of 5% or less (almost no effect)) | 2 (Herbicidal ratio of 20% or more and less than 40%) | 0 (Herbicidal ratio of 5% or less (almost no effect)) |  |  |  |  |  | P: herbicidal effect on Stellaria media (Stellaria media; application herbicide amount 320 g/ha): 4 (Herbicidal ratio of 70% or more and less than 90%)
2 | O=C(Nc1nnco1)c1ccc(C(F)(F)F)n2c(SC3CCCC3)nnc12 [1-155] | 5 (Herbicidal ratio of 90% or more (almost completely withered)) | 1 (Herbicidal ratio of 5% or more and less than 20%) | 2 (Herbicidal ratio of 20% or more and less than 40%) | 3 (Herbicidal ratio of 40% or more and less than 70%) | 0 (Herbicidal ratio of 5% or less (almost no effect)) | 3 (Herbicidal ratio of 40% or more and less than 70%) | 0 (Herbicidal ratio of 5% or less (almost no effect)) | 0 (Herbicidal ratio of 5% or less (almost no effect)) | 5 (Herbicidal ratio of 90% or more (almost completely withered)) | 3 (Herbicidal ratio of 40% or more and less than 70%) | 3 (Herbicidal ratio of 40% or more and less than 70%) | 0 (Herbicidal ratio of 5% or less (almost no effect)) | 0 (Herbicidal ratio of 5% or less (almost no effect)) | 1 (Herbicidal ratio of 5% or more and less than 20%) | 2 (Herbicidal ratio of 20% or more and less than 40%) |  |  |  |  |  | 
3 | O=C(Nc1nnco1)c1ccc(C(F)(F)F)n2c(SCc3ccc(Cl)nc3)nnc12 [1-157] | 4 (Herbicidal ratio of 70% or more and less than 90%) | 4 (Herbicidal ratio of 70% or more and less than 90%) | 3 (Herbicidal ratio of 40% or more and less than 70%) | 3 (Herbicidal ratio of 40% or more and less than 70%) | 1 (Herbicidal ratio of 5% or more and less than 20%) | 3 (Herbicidal ratio of 40% or more and less than 70%) | 1 (Herbicidal ratio of 5% or more and less than 20%) | 1 (Herbicidal ratio of 5% or more and less than 20%) | 5 (Herbicidal ratio of 90% or more (almost completely withered)) | 3 (Herbicidal ratio of 40% or more and less than 70%) | 3 (Herbicidal ratio of 40% or more and less than 70%) | 1 (Herbicidal ratio of 5% or more and less than 20%) | 1 (Herbicidal ratio of 5% or more and less than 20%) | 1 (Herbicidal ratio of 5% or more and less than 20%) | 2 (Herbicidal ratio of 20% or more and less than 40%) |  |  |  |  |  | 
4 | CC(C)c1nnc2c(C(=O)Nc3nnnn3C)ccc(C(F)(F)C(F)(F)F)n12 [2-049] | 5 (Herbicidal ratio of 90% or more (almost completely withered)) | 5 (Herbicidal ratio of 90% or more (almost completely withered)) | 5 (Herbicidal ratio of 90% or more (almost completely withered)) |  |  |  |  |  |  |  |  |  |  |  |  |  |  |  |  |  | b (effect on crop grade) [3]: 1 (Herbicidal ratio of 5% or more and less than 20%); M (Abutilon theophrasti) herbicidal effect grade (Abutilon theophrasti; foliage application, 320 g/ha): 4 (Herbicidal ratio of 70% or more and less than 90%); J (Alopecurus myosuroides) herbicidal effect grade (Alopecurus myosuroides; foliage application, 320 g/ha): 1 (Herbicidal ratio of 5% or more and less than 20%); N (Amaranthus retroflexus) herbicidal effect grade (Amaranthus retroflexus; foliage application, 320 g/ha): 3 (Herbicidal ratio of 40% or more and less than 70%); L (Apera spica-venti.) herbicidal effect grade (Apera spica-venti.; foliage application, 320 g/ha): 4 (Herbicidal ratio of 70% or more and less than 90%); I (Avena fatua) herbicidal effect grade (Avena fatua; foliage application, 320 g/ha): 3 (Herbicidal ratio of 40% or more and less than 70%); O (Chenopodium album) herbicidal effect grade (Chenopodium album; foliage application, 320 g/ha): 5 (Herbicidal ratio of 90% or more (almost completely withered)); F (Digitaria ciliaris) herbicidal effect grade (Digitaria ciliaris; foliage application, 320 g/ha): 5 (Herbicidal ratio of 90% or more (almost completely withered)); H (Echinochloa crus-galli var. crus-galli) herbicidal effect grade ([2]; foliage application, 320 g/ha): 5 (Herbicidal ratio of 90% or more (almost completely withered)); Q (Galium spurium) herbicidal effect grade (Galium spurium; foliage application, 320 g/ha): 3 (Herbicidal ratio of 40% or more and less than 70%); K (Lolium multiflorum Lam.) herbicidal effect grade (Lolium multiflorum Lam.; foliage application, 320 g/ha): 3 (Herbicidal ratio of 40% or more and less than 70%); G (Setaria viridis) herbicidal effect grade (Setaria viridis; foliage application, 320 g/ha): 5 (Herbicidal ratio of 90% or more (almost completely withered)); R (Veronica persica) herbicidal effect grade (Veronica persica; foliage application, 320 g/ha): 4 (Herbicidal ratio of 70% or more and less than 90%)
5 | CCCn1nnnc1NC(=O)c1ccc(C(F)(F)F)n2c(C(C)C)nnc12 [2-090] | 5 (Herbicidal ratio of 90% or more (almost completely withered)) | 5 (Herbicidal ratio of 90% or more (almost completely withered)) | 4 (Herbicidal ratio of 70% or more and less than 90%) |  |  |  |  |  |  |  |  |  |  |  |  | 3 (Herbicidal ratio of 40% or more and less than 70%) | 3 (Herbicidal ratio of 40% or more and less than 70%) | 4 (Herbicidal ratio of 70% or more and less than 90%) | 4 (Herbicidal ratio of 70% or more and less than 90%) | 4 (Herbicidal ratio of 70% or more and less than 90%) | herbicidal effect, F (Digitaria ciliaris) (Digitaria ciliaris; 320 g/ha): 5 (Herbicidal ratio of 90% or more (almost completely withered)); herbicidal effect, H (Echinochloa crus-galli var. crus-galli) ([2]; 320 g/ha): 5 (Herbicidal ratio of 90% or more (almost completely withered)); herbicidal effect, Q (Galium spurium) (Galium spurium; 320 g/ha): 4 (Herbicidal ratio of 70% or more and less than 90%); herbicidal effect, K (Lolium multiflorum Lam.) (Lolium multiflorum Lam.; 320 g/ha): 4 (Herbicidal ratio of 70% or more and less than 90%); herbicidal effect, G (Setaria viridis) (Setaria viridis; 320 g/ha): 4 (Herbicidal ratio of 70% or more and less than 90%); herbicidal effect, P (Stellaria media) (Stellaria media): 5 (Herbicidal ratio of 90% or more (almost completely withered)); herbicidal effect, R (Veronica persica) (Veronica persica; 320 g/ha): 3 (Herbicidal ratio of 40% or more and less than 70%)
6 | Cc1nnc(NC(=O)c2ccc(C(F)(F)F)n3nc(C(C)C)nc23)o1 [7-001] |  | 1 (Herbicidal ratio of 5% or more and less than 20%) | 2 (Herbicidal ratio of 20% or more and less than 40%) |  |  |  |  |  |  |  |  |  |  |  |  | 1 (Herbicidal ratio of 5% or more and less than 20%) | 0 (Herbicidal ratio of 5% or less (almost no effect)) | 0 (Herbicidal ratio of 5% or less (almost no effect)) | 0 (Herbicidal ratio of 5% or less (almost no effect)) | 0 (Herbicidal ratio of 5% or less (almost no effect)) | herbicidal effect, O (Chenopodium album) (Chenopodium album; application to foliage, 320 g/ha): 2 (Herbicidal ratio of 20% or more and less than 40%); herbicidal effect, F (Digitaria ciliaris) (Digitaria ciliaris; 320 g/ha): 0 (Herbicidal ratio of 5% or less (almost no effect)); herbicidal effect, H (Echinochloa crus-galli var. crus-galli) ([2]; 320 g/ha): 1 (Herbicidal ratio of 5% or more and less than 20%); herbicidal effect, Q (Galium spurium) (Galium spurium; 320 g/ha): 0 (Herbicidal ratio of 5% or less (almost no effect)); herbicidal effect, K (Lolium multiflorum Lam.) (Lolium multiflorum Lam.; 320 g/ha): 0 (Herbicidal ratio of 5% or less (almost no effect)); herbicidal effect, G (Setaria viridis) (Setaria viridis; 320 g/ha): 0 (Herbicidal ratio of 5% or less (almost no effect)); herbicidal effect, P (Stellaria media) (Stellaria media): 1 (Herbicidal ratio of 5% or more and less than 20%); herbicidal effect, R (Veronica persica) (Veronica persica; 320 g/ha): 0 (Herbicidal ratio of 5% or less (almost no effect))
